# According to patent publication US6352980B1, “Estrenes for inducting hypothalamic effects” (Pherin Pharmaceuticals, Inc., priority 1991, dated 2002):
# “Also recorded” adds a separate entry of the source.
# What was measured:
# Format in all cases: in vivo, human
# VNO [1] = experiment: Electro-vomeronasogram (EVG) (Example 57); conditions: for EVG response to olfactants delivered to the VNO: male and female subjects, 400 fmoles, FIG. 7B; for EVG response in female subjects: 30 female subjects (ages 20-45), FIG. 6B; for EVG response in the male VNO: male subjects, FIG. 6A and FIG. 7; for organ response (EVG data): additional tests on 13 estranes
# Method: The following electrophysiological studies were performed in 60 clinically normal human volunteers of both sexes (30 male and 30 female) whose ages ranged from 20 to 45 years. No anesthetics were used, and female subjects were excluded if pregnant.
# (§1) The stimulation and recording system consists of a “multifunctional miniprobe” described elsewhere (Monti-Bloch, L. and Grosser, B. l. (1991) “Effect of putative pheromones on the electrical activity of the human vomeronasal organ and olfactory epithelium,” J. Steroid Biochem. Molec. Biol. 39:573-582.). The recording electrode is a 0.3 mm silver ball attached to a small (0.1 mm) silver wire insulated with Teflon© the surface of the electrode is first treated to produce a silver chloride interface, and is then covered with gelatin It is positioned within a small caliber Teflon© catheter (dia=5 mm) such that the tip of the electrode protrudes approximately 2 mm. The Teflon© catheter is 10 cm in length and constitutes the terminal extension for a multichannel delivery system which delivers a continuous air stream carrying discreet pulses of chemosensory stimuli. The air stream first passes into a small chamber and is bubbled through a solution containing either a vomeropherin or an olfactant in a diluent or the diluent alone. A solenoid is used to rapidly redirect the air stream from the chamber to a route which bypasses the chamber. This creates a discreet pulse of stimulant in the air stream. A second, outer Teflon® tube with a diameter of 2 mm surrounds the catheter-electrode assemblage, and its central end is connected to an aspirator that provides continuous suction of 3 ml/s. This concentric arrangement of the outer suction tube allows the emitted chemosensory stimuli to be localized to an area we call a “minifield” (approx. dia=1 mm), and it avoids diffusion of substances either to the area outside the intended stimulation site or into the respiratory system. The entire stimulating and recording assemblage may be positioned either on the neurosensory epithelium within the VNO, or on the surface of the olfactory or respiratory epithelium.
# Electro-vomeronasogram (EVG): Recordings are carried out in a quiet room with the subject supine; the multi-functional miniprobe is initially stabilized within the nasal cavity using a nasal retractor placed in the vestibule. Reference and ground electrodes consist of silver discs (8 mm), both of which are positioned on the glabella.
# The entrance to the VNO, or vomeronasal pit, is identified by first dilating the nasal aperture and vestibule. A 6× magnifying binocular loupe with halogen illumination is then used to introduce the tip of the Teflon® catheter and recording electrode assemblage into the VNO opening where it is stabilized at an approximate depth of 1 mm within the vomeronasal passage. Optimal placement of the recording electrode is signaled after testing for an adequate depolarization in response to a test substance.
# Electrical signals from the recording electrode are fed to a DC amplifier after which they are digitized, computer monitored, and stored. The peak-to-peak amplitude of the signals is measured, and the area under the depolarization wave is integrated, while continuously monitoring the signal both on the computer screen and on a digital oscilloscope. Artifacts produced by respiratory movements are deleted by training the subjects to practice mouth breathing with velopharyngeal closure.
# (§2) Chemosensory Stimulants: Olfactory test substances are cineole, and 1-carvone; vomeropherins are A, B, C, E and F. (Vomeropherins were supplied by Pherin Corporation, Menlo Park, Calif.), Samples of vomeropherins In. concentration of 25-800 fmoles are delivered in the continuous air stream for durations from 300 milliseconds to 1 second. Usually, intervals of 3 to 5 minutes separated each series of short test pulses. […]
# [2] = system: olfactory epithelium (OE); experiment: Electro-olfactgram (EOG) (Example 57); conditions: 20 subjects (10 males, 10 females); 200 fmoles vomeropherins, 400 fmoles olfactants; one second pulses; FIG. 7A
# From the text: as §1, §2
# (§3) Statistical Analysis: EVGs or EOGS, peak-to-peak changes and frequency changes of other parameters were measured and statistically analyzed. The significance of the results was determined by either using paired t-tests or analysis of variance (ANOVA).
# Effects of Vomeropherins on the EOG: The summated receptor potential from the olfactory epithelium (OE) was recorded in 20 subjects: 10 males and 10 females. […]
# VNO [3] = experiment: Skin temperature (ST) on vomeropherin stimulation of the VNO
# Method: (§4) Cortical evoked activity was induced by VNO stimulation with vomeropherins, and olfactory stimulation with odorants delivered in 300 ms air pulses. It was recorded using standard electroencephalographic (EEG) electrodes placed at positions Cz-A1 and Tz-A1 of the international […] system; the ground electrode was placed on the mastoid process. Electrodermal activity (EDA) was recorded using standard 8 mm silver electrodes in contact with palmar skin of the medial and ring fingers, respeCtively, through a conductive gel interface. Skin temperature (ST) was recorded by a small (1.0 mm) thermistor probe placed in the right ear lobe. Peripheral arterial pulse (PAP) was monitored with a plethysmograph attached to the tip of the index finger. Respiratory frequency (RF) was measured with an adjustable strain gauge placed around the lower thorax. All electrical signals were DC amplified, digitized (MP-100, Biopac Systems) and continuously monitored utilizing a computer.
# as §3
# In female subjects vomeropherins produced changes in EDA and ST with a greater standard deviation than in males.
# VNO [4] = experiment: Electrodermal activity (EDA) on vomeropherin stimulation of the VNO; conditions: n=30, p<0.01; for electrodermal activity (EDA): female subjects
# Method: as §4, §3
# Reflex Effects of Vomeropherins: Studies were conducted to determine the central nervous system (CNS) reflex responses to vomeropherin stimulation of the VNO. The sexually dimorphic local responses induced by vomeropherins (FIGS. 6A and B) were mirrored in the autonomic response of male & female subjects. […] In female subjects.
# VNO [5] = experiment: Autonomic responses to Estrene stimulation of the VNO (Example 54); conditions: 40 male subjects, 1 second pulse
# Method: Various autonomic parameters were monitored while 1,3,5(10),16-Estratetraen-3-yl-acetate was administered to 40 male subjects using the procedure described in Example 20. Propylene glycol was also administered as a control. The ligand was administered as a 1 second pulse. The change in autonomic function was first noted within 2 seconds and lasted for up to 45 seconds.
# VNO [6] = experiment: Cortical activity (EEG) on VNO stimulation with vomeropherins; conditions: for EEG-beta activity / EEG-alpha activity: additional tests on 13 estranes of Chart 1
# Method: as §4, §3
# […] […] Synchronization of the EEG was sustained for 1.5 to 2.7 minutes after application of a single pulse of active substance.
# [7] = 30 female subjects, p<0.01 compared to A and C, FIG. 6H
# [8] = females, single pulse 200 fmoles, FIG. 6F
compound,measurement,setting,value
C=C(C)C1CC=C(C)C(=O)C1 (centres unmarked) [1-carvone],EVG response to olfactants delivered to the VNO,VNO [1],only a minor local response in the VNO; also recorded: do not induce a significant EVG response
same,EOG local response of the OE,[2],strong response in both men and women; also recorded: significant (p<0.01) local response
"CC(=O)Oc1ccc2c(c1)CC[C@@H]1[C@@H]2CC[C@]2(C)C=CC[C@@H]12 [A, 1,3,5(10),16-Estratetraen-3-yl acetate]",skin temperature (ST),"VNO [3]; 30 male subjects, p<0.01, FIG. 6G",significant increase in skin temperature
same,EVG response in female subjects,VNO [1]; 100 fmoles,small effect that was significantly different from F
same,EVG average response (mean),"VNO [1]; male subjects (ages 20 to 38), 100 fmoles, 1 second pulses, FIG. 6A",11.4 mV
same,"skin resistance (electrodermal activity, EDA)","VNO [4]; male subjects, FIG. 6C",decreased skin resistance
same,duration of change in autonomic function,VNO [5],up to 45 seconds
same,time at which change in autonomic function was first noted,VNO [5],≤ 2 s
same,integrated receptor potential in the VNO,"VNO [5]; compared to propylene glycol control, FIG. 4A",significant change
same,galvanic skin response,"VNO [5]; compared to propylene glycol control, FIG. 4B",significant change
same,skin temperature,"VNO [5]; compared to propylene glycol control, FIG. 4C",significant change
same,alpha cortical activity,"VNO [6]; males, 200 fmoles, air pulses 300 ms to 1 sec, FIG. 6E",significantly increased alpha cortical activity; also recorded: strongest effect
"C[C@@]12C=CC[C@H]1[C@@H]1CCC3=CC(=O)CC[C@]3(C)[C@H]1CC2 [B, Androsta-4,16-dien-3-one, reference compound]",skin temperature (ST),VNO [3]; [7],significant increase in skin temperature
same,EVG response in the male VNO,VNO [1]; 100 fmoles,significantly reduced responses
same,electrodermal activity (EDA),VNO [4],greater decrease in EDA than A or C
same,EOG local response of the OE,[2],only vomeropherin having significant effect in the OE; also recorded: significant (p<0.01) local response
same,alpha cortical activity,VNO [6]; [8],increased alpha cortical
"C[C@@]12C=CC[C@H]1[C@@H]1CCC3=CC(=O)CC[C@]3(O)[C@H]1CC2 [E7/N1, 10-HYDROXYESTRA-4,16-DIEN-3-ONE]",organ response (EVG data),"VNO [1]; men, FIG. 21A",excellent organ response
same,organ response (EVG data),"VNO [1]; women, FIG. 20A",excellent organ response
same,EEG-beta activity,"VNO [6]; men, FIGS. 22-34 A",high EEG-betain men
same,EEG-alpha activity,"VNO [6]; women, FIGS. 22-34 B",best EEG-alpha activity in women; also recorded: high EEG-alpha in women
"COC1=CCC2=C(CC[C@@H]3[C@@H]2CC[C@]2(C)C=CC[C@@H]32)C1 [E8/N1, 3-METHOXYESTRA-2,5(10),16-TRIENE]",EEG-beta activity,"VNO [6]; men, FIGS. 22-34 A",best EEG-beta activity in men
"C[C@@]12C=CC[C@H]1[C@@H]1C[C@@H](O)c3cc(O)ccc3[C@H]1CC2 [E12/N1, ESTRA-1,3,5(10),16-TETRAEN-3,6β-DIOL]",EEG-alpha activity,"VNO [6]; men, FIGS. 22-34 A",best EEG-alpha activity in men
"C[C@@]12C=CC[C@H]1[C@@H]1CCC3=C[C@H](O)CC[C@]3(C)[C@H]1CC2 [E, Androsta-4,16-dien-3α-ol]",EVG response in female subjects,VNO [1]; 100 fmoles,does not stimulate the VNO in female subjects
same,EOG local response of the OE,[2],stronger olfactory effect than does F; also recorded: significant (p<0.01) local response
"C[C@@]12C=CC[C@H]1[C@@H]1CCC3=C[C@@H](O)CC[C@]3(C)[C@H]1CC2 [F, Androsta-4,16-dien-3β-ol, reference compound]",skin temperature (ST),VNO [3]; [7],significant increase in skin temperature
same,EVG response in female subjects,VNO [1]; 100 fmoles,produced the most significant differences within the group
same,EVG response in the male VNO,VNO [1]; 100 fmoles,significantly reduced responses
same,electrodermal activity (EDA),VNO [4],greater decrease in EDA than A or C
same,alpha cortical activity,VNO [6]; [8],increased alpha cortical
CC12CCC(CC1)C(C)(C)O2 [cineole],EVG response to olfactants delivered to the VNO,VNO [1],only a minor local response in the VNO; also recorded: do not induce a significant EVG response
same,EOG local response of the OE,[2],strong response in both men and women; also recorded: significant (p<0.01) local response
